The subject of assay [1] is Candida albicans. Description: Chemo-sensitization of fluconazole antifungal activity against FLC-resistant Candida albicans assessed as inhibition of microbial growth in presence of fluconazole at 1:1 ratio of compound to fluconazole incubated for 24 hrs by microbroth dilution assay relative to untreated control. Type of assay: functional. In general terms: Broth dilution looks for growth in wells or tubes with falling amounts of substance.

Assay [2] concerns Candida albicans. Description: Chemo-sensitization of fluconazole antifungal activity against FLC-resistant Candida albicans assessed as inhibition of microbial growth at 200 ug/mL in presence of fluconazole incubated for 24 hrs by microbroth dilution assay relative to untreated control. The format is functional, organism-based.
Assay [3] relates to Candida albicans. Description: Antifungal activity against normal Candida albicans assessed as inhibition of microbial growth at 200 ug/mL incubated for 24 hrs by microbroth dilution assay relative to untreated control. The format is functional. The conditions noted are these: read-out: GI.
The subject of assay [4] is Candida albicans. Description: Antifungal activity against FLC-resistant Candida albicans assessed as inhibition of microbial growth at 200 ug/mL incubated for 24 hrs by microbroth dilution assay relative to untreated control. Type of assay: functional. The conditions noted are these: read-out: GI.
In assay [5] the test system is Candida albicans. Description: Antifungal activity against FLC-resistant Candida albicans assessed as inhibition of microbial growth incubated for 24 hrs by microbroth dilution assay relative to untreated control. The format is functional.

The source made the active and inactive calls. The calls are words filed in the database; no cut-off is given here.

`C/C(=C\[C@H]1C[C@H](C)C(=O)O1)[C@H]1C[C@@H](O)[C@]2(C)[C@]1(C)C(=O)C=C1[C@@]3(C)CCC(=O)C(C)(C)[C@@H]3C[C@H]3O[C@@]132`: the MIC50 (in general, an inhibitory concentration at the 50% level, which refers to growth in some studies and to a panel of isolates in others) in the assay on Candida albicans [1] was 5 µg/mL. Moreover, the “growth inhibition (GI)” value with Candida albicans [2] is “Active”. Moreover, the inhibition of growth at 200 µg/mL with Candida albicans [3] is below 50%.
`C/C(=C\[C@@H]1C[C@H](C)C(=O)O1)[C@H]1C[C@@H](O)[C@]2(C)[C@]1(C)C(=O)C=C1[C@@]3(C)CCC(=O)C(C)(C)[C@@H]3C[C@H]3O[C@@]132`: in the assay on Candida albicans [1], the MIC50 turned out to be 37.8 µg/mL. Also, the “growth inhibition (GI)” value in the assay on Candida albicans [2] was “Active”. Also, in the assay with Candida albicans [3], the inhibition of growth at 200 µg/mL is below 50%.
On to `C/C(=C\[C@@H]1C[C@H](C)C(=O)O1)[C@H]1C[C@H](O)[C@]2(C)[C@]1(C)C(=O)C=C1[C@@]3(C)CCC(=O)C(C)(C)[C@@H]3C[C@H]3O[C@@]132`, for which, in the assay on Candida albicans [1], the MIC50 was determined as 4.7 µg/mL. Further, the “growth inhibition (GI)” value in the assay with Candida albicans [2] is “Active”. Besides, the inhibition of growth at 200 µg/mL with Candida albicans [3] was below 50%.
Turning to `C/C(=C\C(=O)C[C@H](C)C(=O)O)[C@H]1C[C@@H](O)[C@@]2(C)C3=C([C@@H](O)[C@H](O)[C@]12C)[C@@]1(C)CCC(=O)C(C)(C)[C@@H]1CC3=O`, the “growth inhibition (GI)” value with Candida albicans [2] was “Active”. In addition, the inhibition of growth at 200 µg/mL in the assay on Candida albicans [3] was below 50%.
On to `C=C(C)[C@@H]1C[C@H]2O[C@@]23C(=CC(=O)[C@]2(C)[C@@H](/C(C)=C/[C@H]4C[C@H](C)C(=O)O4)C[C@H](O)[C@]23C)[C@@]1(C)CCC(=O)OC`, for which, in the assay with Candida albicans [1], the MIC50 was 129 µg/mL. Also, in the assay with Candida albicans [2], the “growth inhibition (GI)” value is “Active”. Further, the inhibition of growth at 200 µg/mL in the assay on Candida albicans [3] is below 50%.
As to `C[C@@H](CC(=O)C[C@](C)(O)C1=CC(=O)[C@]2(C)[C@]1(C)C(=O)C=C1[C@]23O[C@H]3C[C@H]2C(C)(C)C(=O)CC[C@]12C)C(=O)O`, in the assay on Candida albicans [1], the MIC50 was 3.8 µg/mL. The “growth inhibition (GI)” value with Candida albicans [2] is “Active”. The inhibition of growth at 200 µg/mL in the assay on Candida albicans [3] is below 50%.
For the molecule `C[C@@H](CC(=O)C[C@](C)(O)C1=C[C@@H](O)[C@]2(C)[C@]1(C)C(=O)C=C1[C@]23O[C@H]3C[C@H]2C(C)(C)C(=O)CC[C@]12C)C(=O)O`, in the assay with Candida albicans [1], the MIC50 was determined as 29 µg/mL. Also, in the assay with Candida albicans [2], the “growth inhibition (GI)” value was “Active”. Besides, the inhibition of growth at 200 µg/mL in the assay with Candida albicans [3] was below 50%.
As for `C[C@@H](CC(=O)C[C@](C)(O)C1=CC(=O)[C@]2(C)[C@]1(C)C(=O)C=C1[C@]23O[C@H]3C[C@H]2C(C)(C)[C@@H](O)CC[C@]12C)C(=O)O`, the MIC50 with Candida albicans [1] came out at 28.3 µg/mL. For the same molecule, the “growth inhibition (GI)” value in the assay with Candida albicans [2] was “Active”. For the same molecule, the inhibition of growth at 200 µg/mL with Candida albicans [3] was below 50%.
With `C/C(=C\C(=O)C[C@H](C)C(=O)O)[C@H]1C[C@H](O)[C@@]2(C)[C@]34O[C@H]3C[C@H]3C(C)(C)C(=O)CC[C@]3(C)C4=CC(=O)[C@]12C`, the “growth inhibition (GI)” value in the assay on Candida albicans [2] is “Active”. Besides, the inhibition of growth at 200 µg/mL in the assay on Candida albicans [3] is below 50%.
Take `C/C(=C\C(=O)C[C@H](C)C(=O)O)[C@H]1C[C@H](O)[C@@]2(C)[C@]34O[C@@H]3C[C@H]3C(C)(C)C(=O)CC[C@]3(C)C4=CC(=O)[C@]12C`: in the assay with Candida albicans [1], the MIC50 came to 7.3 µg/mL. In addition, in the assay with Candida albicans [2], the “growth inhibition (GI)” value is “Active”. Further, the inhibition of growth at 200 µg/mL in the assay with Candida albicans [4] was below 50%; in the assay with Candida albicans [3], 55%.
As to `C/C(=C\C(=O)C[C@H](C)C(=O)O)[C@H]1C[C@@H](O)[C@@]2(C)C3=C(C(=O)[C@H](O)[C@]12C)[C@@]1(C)CCC(=O)C(C)(C)[C@@H]1CC3=O`, the MIC50 in the assay with Candida albicans [1] was determined as 4.4 µg/mL. Also, the “growth inhibition (GI)” value with Candida albicans [2] is “Active”. Besides, the inhibition of growth at 200 µg/mL in the assay with Candida albicans [3] was below 50%.
For the molecule `C/C(=C\C(=O)C[C@H](C)C(=O)O)[C@H]1C[C@H](O)[C@@]2(C)C3=CC[C@H]4C(C)(C)C(=O)CC[C@]4(C)C3=CC(=O)[C@]12C`, the MIC50 with Candida albicans [1] was 70 µg/mL. Besides, the “growth inhibition (GI)” value in the assay with Candida albicans [2] was “Active”. Further, the inhibition of growth at 200 µg/mL with Candida albicans [3] was below 50%.
Regarding `C=C(C)[C@@H]1C[C@H]2O[C@@]23C(=CC(=O)[C@]2(C)[C@@H](/C(C)=C/[C@H]4C[C@H](C)C(=O)O4)C[C@@H](O)[C@]23C)[C@@]1(C)CCC(=O)O`, the MIC50 with Candida albicans [1] was 25.8 µg/mL. Further, the “growth inhibition (GI)” value in the assay with Candida albicans [2] was “Active”. Also, the inhibition of growth at 200 µg/mL in the assay with Candida albicans [3] is below 50%.
Take `OC(Cn1cncn1)(Cn1cncn1)c1ccc(F)cc1F` [FLUCONAZOLE]: in the assay on Candida albicans [5], the MIC50 is 6.3 µg/mL.
Regarding `C[C@@H](CC(=O)C[C@](C)(O)C1=C[C@H](O)[C@]2(C)[C@]1(C)C(=O)C=C1[C@]23O[C@H]3C[C@H]2C(C)(C)C(=O)CC[C@]12C)C(=O)O`, the MIC50 with Candida albicans [1] stood at 37.7 µg/mL. Besides, in the assay with Candida albicans [2], the “growth inhibition (GI)” value was “Active”. In addition, the inhibition of growth at 200 µg/mL in the assay with Candida albicans [3] was below 50%.
Take `C/C(=C\C(=O)C[C@H](C)C(=O)O)[C@H]1C[C@H](O)[C@@]2(C)C3=C(C=C[C@]12C)[C@@]1(C)CCC(=O)C(C)(C)[C@@H]1CC3=O`: in the assay on Candida albicans [1], the MIC50 came to 5.1 µg/mL. In addition, the “growth inhibition (GI)” value with Candida albicans [2] was “Active”. Moreover, the inhibition of growth at 200 µg/mL in the assay on Candida albicans [3] was below 50%.
As to `C/C(=C\C(=O)C[C@H](C)C(=O)O)[C@H]1C[C@@H](O)[C@@]2(C)C3=C(C=C[C@]12C)[C@@]1(C)CCC(=O)C(C)(C)[C@@H]1CC3=O`, the “growth inhibition (GI)” value in the assay on Candida albicans [2] is “Active”. Further, in the assay with Candida albicans [3], the inhibition of growth at 200 µg/mL was below 50%.
Take `C/C(=C\C(=O)C[C@H](C)C(=O)O)[C@H]1C[C@@H](O)[C@@]2(C)C3=C(C[C@H](O)[C@]12C)[C@@]1(C)CCC(=O)C(C)(C)[C@@H]1CC3=O`: in the assay with Candida albicans [2], the “growth inhibition (GI)” value was “Active”. Further, the inhibition of growth at 200 µg/mL in the assay with Candida albicans [3] was below 50%.
As for `C=C(C)[C@@H]1C[C@H]2O[C@@]23C(=CC(=O)[C@]2(C)[C@@H](/C(C)=C/[C@H]4C[C@H](C)C(=O)O4)C[C@H](O)[C@]23C)[C@@]1(C)CCC(=O)O`, the MIC50 with Candida albicans [1] is 29.4 µg/mL. Also, in the assay with Candida albicans [2], the “growth inhibition (GI)” value was “Active”. The inhibition of growth at 200 µg/mL in the assay on Candida albicans [3] was below 50%.
As to `C[C@@H](CC(=O)C[C@](C)(O)C1=C[C@@H](O)[C@]2(C)[C@]1(C)C(=O)C=C1[C@]23O[C@H]3C[C@H]2C(C)(C)[C@@H](O)CC[C@]12C)C(=O)O`, in the assay with Candida albicans [1], the MIC50 is 8.8 µg/mL. Besides, in the assay with Candida albicans [2], the “growth inhibition (GI)” value is “Active”. The inhibition of growth at 200 µg/mL with Candida albicans [3] was below 50%.
For the molecule `C/C(=C\[C@H]1C[C@H](C)C(=O)O1)[C@H]1C[C@H](O)[C@]2(C)[C@]1(C)C(=O)C=C1[C@@]3(C)CCC(=O)C(C)(C)[C@@H]3C[C@H]3O[C@@]132`, the MIC50 in the assay on Candida albicans [1] amounted to 47.9 µg/mL. The “growth inhibition (GI)” value in the assay with Candida albicans [2] is “Active”. Further, the inhibition of growth at 200 µg/mL with Candida albicans [3] was below 50%.
Turning to `C[C@H]1C[C@@]2(C[C@](C)(O)C3=C[C@@H](O)[C@@]4(C)C5=C(C(=O)[C@H](O2)[C@]34C)[C@@]2(C)CCC(=O)C(C)(C)[C@@H]2CC5=O)OC1=O`, in the assay with Candida albicans [1], the MIC50 amounted to 78 µg/mL. Further, the “growth inhibition (GI)” value with Candida albicans [2] is “Active”. Also, the inhibition of growth at 200 µg/mL in the assay with Candida albicans [3] was below 50%.
